# Assay results taken from PubChem BioAssay AID1552 (Sanford-Burnham Center for Chemical Genomics, 2009).
# Active and inactive are the calls of the source. How the calls were made is not given here.
# Target: Ubiquitin-conjugating enzyme E2 N (Homo sapiens) (UniProt P61088)
# Experiment: UBE2N binders by NMR, biophysical, purified protein (AID 1552)
# Details: NMR binding to purified UBE2N
# Chain of Ubiquitin-conjugating enzyme E2 N (Homo sapiens) (P61088 whole entry, looked up): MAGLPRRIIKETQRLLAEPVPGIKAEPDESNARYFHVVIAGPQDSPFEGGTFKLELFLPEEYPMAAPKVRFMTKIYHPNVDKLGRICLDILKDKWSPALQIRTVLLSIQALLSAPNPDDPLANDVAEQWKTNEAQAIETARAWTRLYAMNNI
row,SMILES,Kd
1,CC(=O)Nc1cccc(-c2nc3ccccc3c(=O)o2)c1,> 4 mM (inactive)
2,CC(C)(OC(=O)c1ccccc1)[C@@H]1Cc2cc3ccc(=O)oc3cc2O1,> 4 mM (inactive)
3,Nc1ncnc2nc[nH]c12,> 4 mM (inactive)
4,CCOC(=O)c1csc(C2COc3ccccc3O2)n1 (stereo unspecified),> 4 mM (inactive)
5,CC(C)=CCc1c(O)cc2oc(C)cc(=O)c2c1O,> 4 mM (inactive)
6,COc1cccc(C(=O)N2CCOCC2)c1,> 4 mM (inactive)
7,CNC(=S)Nc1ccc(C(=O)O)cc1,> 4 mM (inactive)
8,Nc1cccnc1N1CCOCC1,> 4 mM (inactive)
9,Nc1nnc(C(F)(F)F)s1,> 4 mM (inactive)
10,OC12C=CC(CC1)CC2,> 4 mM (inactive)
11,COC(=O)c1ccccc1N(C)S(C)(=O)=O,> 4 mM (inactive)
12,Cc1cc(C(=O)NC(C)c2ccncc2)no1 (stereo unspecified),> 4 mM (inactive)
13,O=C(O)C1COc2ccccc2O1 (stereo unspecified),> 4 mM (inactive)
14,Cn1cc(Cl)c(C(=O)NC2CCCC2)n1,> 4 mM (inactive)
15,CN(C)c1ccc(CNn2cnnc2)cc1,> 4 mM (inactive)
16,NCc1cccc2c1OCCCO2,> 4 mM (inactive)
17,CC(=O)Nc1nc(-c2cccs2)cs1,> 4 mM (inactive)
18,Cc1ccc(C)c(C(=O)n2cnnc2N)c1,> 4 mM (inactive)
19,Fc1ccc2onc(C3CCNCC3)c2c1,> 4 mM (inactive)
20,Cc1cc(C)n(CCCC(=O)O)n1,> 4 mM (inactive)
21,COC(=O)[C@]1(C)CCC[C@]2(C)c3ccc(C(C)C)cc3C(=O)CC12 (stereo partly specified),> 4 mM (inactive)
22,O=C(O)c1cccc2nsnc12,> 4 mM (inactive)

row,SMILES,Kd
1,CC(=O)OC[C@H]1O[C@@H](Oc2cc(OC(C)=O)c3c(=O)cc(-c4ccc(OC(C)=O)cc4)oc3c2)[C@H](OC(C)=O)[C@@H](OC(C)=O)[C@@H]1OC(C)=O,> 4 mM (inactive)
2,CNC(=S)NCCN1CCOCC1,> 4 mM (inactive)
3,Nc1nnc(SCc2ccccc2Cl)s1,> 4 mM (inactive)
4,C=C(C)[C@H]1COc2cc3oc(=O)ccc3cc2O1,> 4 mM (inactive)
5,CCOc1ccc(-c2n[nH]c(=S)n2C)cc1,> 4 mM (inactive)
6,CSc1nnc(-c2ccccc2NC(C)=O)o1,> 4 mM (inactive)
7,c1ccc(-c2csc3ncn4nnnc4c23)cc1,> 4 mM (inactive)
8,O=C(NCc1cccs1)c1ccncc1,> 4 mM (inactive)
9,CC1(C)O[C@H]2CC(=O)OC[C@]23[C@H]2CC[C@@]4(C)[C@H](c5ccoc5)OC(=O)[C@H]5O[C@]54[C@]2(C)C(=O)C[C@@H]13,> 4 mM (inactive)
10,O=C(NCc1ccccn1)c1ccc(Br)s1,> 4 mM (inactive)
11,NC(=O)CS(=O)(=O)c1ccc2ccccc2c1,> 4 mM (inactive)
12,c1ccc(-c2nsc(N3CCNCC3)n2)cc1,> 4 mM (inactive)
13,COc1cccc(O)c1O,> 4 mM (inactive)
14,Cn1c2ccccc2n2c(=S)[nH]nc12,> 4 mM (inactive)
15,S=C1NC(=S)NC(c2ccc3c(c2)OCO3)N1,> 4 mM (inactive)
16,CN1CCCCC1c1ccc(-c2cccnc2)nc1 (stereo unspecified),> 4 mM (inactive)
17,O=C(O)C1Cc2ccccc2O1 (stereo unspecified),> 4 mM (inactive)
18,CC(=O)C1=C(O)C(=O)NC1c1ccccc1 (stereo unspecified),> 4 mM (inactive)
19,Clc1ncnc2[nH]ncc12,> 4 mM (inactive)
20,N[C@@H](Cc1cc(I)c(Oc2cc(I)c(O)c(I)c2)c(I)c1)C(=O)O,> 4 mM (inactive)
21,CCOc1cc(S(=O)(=O)n2nc(C)cc2C)ccc1F,> 4 mM (inactive)
22,NCC(=O)c1ccccc1,> 4 mM (inactive)

row,SMILES,Kd
1,Cn1c(=O)n(CC(=O)N2CCOCC2)c2ccccc21,> 4 mM (inactive)
2,COC(=O)[C@@H]1C(O)CC[C@H]2CN3CCc4c([nH]c5ccccc45)[C@@H]3C[C@@H]21 (stereo partly specified),> 4 mM (inactive)
3,Cc1ccccc1NC(=O)/C=C\C(N)=O,> 4 mM (inactive)
4,CCNC(CC(=O)Nc1ccc(O)cc1)C(=O)O (stereo unspecified),> 4 mM (inactive)
5,CCOC(=O)c1csc(C)n1,> 4 mM (inactive)
6,Nc1cccc(NC(=O)c2cccs2)c1,> 4 mM (inactive)
7,CSc1nc2cc(F)c(F)cc2n1C,> 4 mM (inactive)
8,O=C1C[C@@H](c2ccc(O)cc2)Oc2cc(O)cc(O)c21,> 4 mM (inactive)
9,CC1=[N+]([O-])C2(N)CCc3c(no[n+]3[O-])C2(O)C1 (stereo unspecified),> 4 mM (inactive)
10,CN(Cc1nc2ccccc2n1C)C(=O)c1cccs1,> 4 mM (inactive)
11,CC(=O)c1cccc(NS(=O)(=O)N(C)C)c1,> 4 mM (inactive)
12,COc1cc2c(cc1O)[C@@H](Cc1ccc(O)cc1)[N+](C)(C)CC2,> 4 mM (inactive)
13,Nc1ccc2nccnc2c1,> 4 mM (inactive)
14,Cn1cnc([N+](=O)[O-])c1Sc1ncnc2nc[nH]c12,> 4 mM (inactive)
15,CC(C)NS(=O)(=O)c1ccc(N)cc1,> 4 mM (inactive)
16,CCn1cnc2scc(-c3ccccc3)c2c1=O,> 4 mM (inactive)
17,CC(C)(O)CC[C@@H](O)[C@](C)(O)C1CC[C@@]2(O)C3=CC(=O)C4C[C@@H](O)[C@@H](O)C[C@]4(C)C3CC[C@]12C (stereo partly specified),> 4 mM (inactive)
18,OC1CC2CCC1C2 (stereo unspecified),> 4 mM (inactive)
19,O=C(NCCO)c1cc2ccccc2c(=O)s1,> 4 mM (inactive)
20,C/C=C(\C)C(=O)O[C@H]1C[C@@H](OC(C)=O)[C@@]2(C(=O)OC)CO[C@@H]3C2[C@]12CO[C@](O)(C(=O)OC)[C@H]2[C@](C)(C12O[C@@]1(C)[C@H]1C[C@@H]2OC2OC=C[C@@]21O)[C@@H]3O (stereo partly specified),> 4 mM (inactive)
21,CCn1cnc2cc([N+](=O)[O-])ccc2c1=O,> 4 mM (inactive)
22,Nc1[nH]c(=S)[nH]c(=O)c1-c1ccccc1,> 4 mM (inactive)

row,SMILES,Kd
1,NCCc1ccc(S(N)(=O)=O)cc1,> 4 mM (inactive)
2,O=C1CSC(=Nc2ccccc2[N+](=O)[O-])N1,> 4 mM (inactive)
3,NC(=O)CSc1ccc(-c2ccccc2)nn1,> 4 mM (inactive)
4,CSc1n[nH]c(NCc2ccccc2)n1,> 4 mM (inactive)
5,Cc1cc(C)c(NC(=O)CN2CCC(O)CC2)c(C)c1,> 4 mM (inactive)
6,Cc1noc(-c2ccccc2)c1CO,> 4 mM (inactive)
7,O=C(C1CCCCC1)N1CCN(c2ccccc2F)CC1,> 4 mM (inactive)
8,O=C(COc1ccccc1Cl)N1CCCC1,> 4 mM (inactive)
9,Cc1ccc(NC(=O)C(=O)Nc2ccccn2)cc1,> 4 mM (inactive)
10,Cc1nccn1CCC(=O)O,> 4 mM (inactive)
11,Cc1ccc(CN2CCNC(=O)C2CC(=O)O)o1 (stereo unspecified),> 4 mM (inactive)
12,O=C1NCCCC1C(=O)N1CCCCC1 (stereo unspecified),> 4 mM (inactive)
13,NC(=O)C1CCCN1S(=O)(=O)c1ccc(F)cc1 (stereo unspecified),> 4 mM (inactive)
14,NC(=O)Cn1nc(-c2ccc(F)cc2)ccc1=O,> 4 mM (inactive)
15,Nc1cc(-c2ccco2)[nH]n1,> 4 mM (inactive)
16,CNC(=O)Oc1ccc2c(c1)[C@]1(C)CCN(C)[C@@H]1N2C,> 4 mM (inactive)
17,COc1cc(-c2coc3cc(OCc4ccccc4)c(OC)c(O)c3c2=O)cc(O)c1OC,> 4 mM (inactive)
18,O=S1(=O)CCC(NC(=S)Nc2ccccc2)C1 (stereo unspecified),> 4 mM (inactive)
19,O=C(c1ccccc1)c1cncc(Br)c1,> 4 mM (inactive)
20,CSc1ccc(C(=S)N2CCN(C)CC2)cc1,> 4 mM (inactive)
